One data set concerns food-deprived rats. Briefly: Hypophagia-inducing activity in food-deprived rats. The data set is classed as in vivo, rat. To be noted: 10 mg/kg orally; rats deprived of food for 24 h; one hour after treatment; FIGS. 2A, 2B. The source says:
Verification of the consumption of food in food-deprived rats represents a condition that reproduces the complex system regulating the sensation of hunger and the intake of food in humans. Fasting in fact introduces many physiological changes that can lead to activation of the circuits that are specifically dedicated to the control of food intake. As is well known, the use of this model constitutes a valid tool for identifying substances capable of interfering with appetite disorders and can be used in particular for monitoring conditions such as hyperphagia, bulimia and obesity.
Male CD rats weighing 300-350 g were used.
The animals were kept in a room with a controlled cycle of light and darkness (6:00-18:00). Before the test, which was carried out at 9:30 corresponding to daytime, the animals were deprived of food for 24 h. At the end of the fasting period, the animals were treated orally with the test compounds (10 mg/kg) in an aqueous vehicle and, immediately after treatment, a pre-weighed amount of food was made available. One hour after treatment, the food consumption was evaluated by weighing the amount of food remaining. The control animals were treated orally with the vehicle (water) used for administering the test compounds.

In another data set the test system is rat. To be noted: Eur J Pharmacol, 1989, 164: 445-54; cited from earlier work.
Another data set relates to Male CD rats. Briefly: Anxiogenic activity in the rat (test of social interaction). The class given is in vivo. To be noted: intraperitoneal; evaluated after 20 minutes during a 10-minute period; FIG. 1. The source says:
The anxiogenic activity of the compounds of the present invention was investigated by means of the social interaction test in the rat, which, as is known by a person skilled in the art, represents an experimental model that is predictive of the effects in humans.
Measurement of the time spent by pairs of animals in interacting with one another and exploring their surroundings (usually an arena consisting of a Perspex container) constitutes a model for verifying the action of substances that influence social behaviour.
Male CD rats weighing 150-250 g were used.
The animals were kept in a room with a controlled cycle of light and darkness (6:00-18:00). To promote acclimatization and eliminate responses induced by stress conditions, the rats were handled and were injected daily with the vehicle (water) for the four days preceding administration of the test compounds.
On the fifth day the animals were treated intraperitoneally with the test compounds and, after 20 minutes, the interaction time (seconds) spent by the animals during a 10-minute period was evaluated.

As for `CC1CN(c2cccc(Cl)c2)CCN1` (racemic) [Compound 1], the “amount of food consumed, lower than that consumed by the control animals” value in the data set on food-deprived rats was “approx. 28%”. Still for that read-out and setting: next, `C[C@H]1CN(c2cccc(Cl)c2)CCN1` [Compound 2]: 75-80%; `C[C@@H]1CN(c2cccc(Cl)c2)CCN1` [Compound 3]: approximately 20%.

As to `FC(F)(F)c1cccc(N2CCNCC2)c1` [TFMPP, m-trifluoromethyl phenylpiperazine], the “anxiogenic effects (social interaction time)” value in the data set with rat is given as “reduce social interaction time”. As for `Clc1cccc(N2CCNCC2)c1` [mCPP, m-chlorophenyl-piperazine], the “interaction time relative to that of the control animals” value with Male CD rats was “approx. 50%”. Moreover, the “anxiogenic effects (social interaction time)” value in the data set on rat is “reduce social interaction time”.

The values are drawn from patent publication US7879836B2, “Pharmaceutical composition comprising a 1-(3-chlorophenyl)-3-alkylpiperazine for treating appetite disorder” (Aziende Chimiche Riunite Angelini Francesco A.C.R.A.F. …, priority 2005, dated 2011).
